# Reference: patent US4616081A, “Cephalosporin compounds” (Asahi Kasei Kogyo Kabushiki Kaisha, priority 1982, dated 1986)
# Assays:
# [1] = tested on: Staph. aureus ATCC 6538P; experiment: MIC against Staph. aureus ATCC 6538P; type: cell-based
# Experimental: (§1) Nextly, antibacterial activity or minimum inhibitory concentration (MIC) was measured and the results are shown in Table 1 with respect to the following representative compounds according to the present invention. [drawing 19]
# (§2) With respect to Compound Nos. 14 and 15, antibacterial activity or minimum inhibitory concentration (MIC) was measured and the results are shown in Table 2. [drawing 21]
# [2] = tested on: Staph. aureus MS27; experiment: MIC against Staph. aureus MS27; type: cell-based
# Experimental: as §1, §2
# [3] = tested on: Strept. pyogenes NY5; experiment: MIC against Strept. pyogenes NY5; type: cell-based; conditions: Bacterial count inoculated 10^6 cells/ml
# Experimental: as §1, §2
# [4] = tested on: Sarcina lutea ATCC 9341; experiment: MIC against Sarcina lutea ATCC 9341; type: cell-based
# Experimental: as §1, §2
# [5] = tested on: E. coli NIHJ-JC2; experiment: MIC against E. coli NIHJ-JC2; type: cell-based
# Experimental: as §1, §2
# [6] = tested on: E. coli W3630; experiment: MIC against E. coli W3630; type: cell-based
# Experimental: as §1, §2
# [7] = tested on: E. coli W3630 PS3; experiment: MIC against E. coli W3630 PS3; type: cell-based
# Experimental: as §1, §2
# [8] = tested on: Citrobact. freundii GN346; experiment: MIC against Citrobact. freundii GN346; type: cell-based
# Experimental: as §1, §2
# [9] = tested on: Klebs. pneumoniae ATCC 10031; experiment: MIC against Klebs. pneumoniae ATCC 10031; type: cell-based
# Experimental: as §1, §2
# [10] = tested on: Salm. enteritidis Gaertner; experiment: MIC against Salm. enteritidis Gaertner; type: cell-based
# Experimental: as §1, §2
# [11] = tested on: Shigella sonnei E33; experiment: MIC against Shigella sonnei E33; type: cell-based
# Experimental: as §1, §2
# [12] = tested on: Proteus morganii 0239; experiment: MIC against Proteus morganii 0239; type: cell-based
# Experimental: as §1, §2
# [13] = tested on: Proteus rettgeri ACR; experiment: MIC against Proteus rettgeri ACR; type: cell-based
# Experimental: as §1, §2
# [14] = tested on: Enterobact. aerogenes 0655; experiment: MIC against Enterobact. aerogenes 0655; type: cell-based
# Experimental: as §1, §2
# [15] = tested on: Enterobact. cloacae GN336; experiment: MIC against Enterobact. cloacae GN336; type: cell-based
# Experimental: as §1, §2
# [16] = tested on: Serratia marcescens; experiment: MIC against Serratia marcescens; type: cell-based
# Experimental: as §1, §2
# [17] = tested on: Ps. aeruginosa 0812 M2; experiment: MIC against Ps. aeruginosa 0812 M2; type: cell-based; conditions: Bacterial count inoculated 10^6 cells/ml
# Experimental: as §1, §2
# [18] = acute toxicity test using mice, intraperitoneal; conditions: mouse, in vivo, ip
# Text: In addition to excellent antibacterial activity, the compounds of the present invention are low in toxicity. For example, in acute toxicity test using mice, the following results were obtained with Compound Nos. 2, 3, 7, 14, 15 and 23 which were intraperitoneally administered.
# [19] = maximum blood concentration after oral administration in Wister rats (HPLC and Bioassay); type: in vivo; conditions: Wister rat, fasted, 30 mg/kg, solution of pH 7 in phosphate buffer
# Experimental: Further in the compounds according to the present invention, intestinal absorption is improved by the introduction of amino acids at the 3-position thereof. For example, comparison of the maximum blood concentration of the Compound Nos. 2, 3, 7, 8, 14, 15 and 23 with that of Comparative Compound (b) establishes and affirms the effects, as is shown below. In the above test, the method for measurement of blood concentration was as follows. Rate: Wister rat weighing 170 to 220 g Dose: 30 mg/kg Wister rats were fasted from the previous night but freely accessible to water. Each of drugs was administered as a solution of pH 7 in a phosphate buffer, when orally administered. The blood concentration was measured in accordance with the High Performance Liquid Chromatography (HPLC) method and the Bioassay method by using E. coli as bacteria for test.
# [20] = tested on: E. coli W3630 RGN14; experiment: MIC against E. coli W3630 RGN14; type: cell-based
# [21] = tested on: E. coli W3630 RGN238; experiment: MIC against E. coli W3630 RGN238; type: cell-based
# [22] = tested on: E. coli 0205; experiment: MIC against E. coli 0205; type: cell-based
# [23] = tested on: Staph. pyogenes NY5; experiment: MIC against Staph. pyogenes NY5; type: cell-based
# [24] = Bacterial count inoculated 10^6 cells/ml
# [25] = Bacterial count inoculated 10^8 cells/ml
# [26] = Table 3, second listing of the strain, head prints 10^6 cells/ml
smiles,measurement,setting,value
CO/N=C(\C(=O)N[C@@H]1C(=O)N2C(C(=O)O)=C(CSc3nc(C(=O)O)c(N)n3C)CS[C@H]12)c1csc(N)n1 [Compound No. 2],Minimum Inhibitory Concentration (MIC),[1]; [24],3.1
same,Minimum Inhibitory Concentration (MIC),[2]; [24],6.3
same,Minimum Inhibitory Concentration (MIC),[3],0.1
same,Minimum Inhibitory Concentration (MIC),[4]; [24],0.2
same,Minimum Inhibitory Concentration (MIC),[5]; [24],0.2
same,Minimum Inhibitory Concentration (MIC),[6]; [24],0.2
same,Minimum Inhibitory Concentration (MIC),[7]; [24],0.2
same,Minimum Inhibitory Concentration (MIC),[8]; [24],25
same,Minimum Inhibitory Concentration (MIC),[9]; [24],0.1
same,Minimum Inhibitory Concentration (MIC),[10]; [24],0.2
same,Minimum Inhibitory Concentration (MIC),[11]; [24],0.4
same,Minimum Inhibitory Concentration (MIC),[12]; [24],0.1
same,Minimum Inhibitory Concentration (MIC),[13]; [24],0.2
same,Minimum Inhibitory Concentration (MIC),[14]; [24],1.6
same,Minimum Inhibitory Concentration (MIC),[15]; [24],0.8
same,Minimum Inhibitory Concentration (MIC),[16]; [24],0.2
same,Minimum Inhibitory Concentration (MIC),[17],6.3
same,LD50,[18],9000 to 10000 mg/kg
same,Cmax,[19],16000 ng/mL
"CO/N=C(\C(=O)N[C@@H]1C(=O)N2C(C(=O)O)=C(COC(C)=O)CS[C@H]12)c1csc(N)n1 [Comparative Compound (b), reference compound]",Minimum Inhibitory Concentration (MIC),[1]; [24],1.6
same,Minimum Inhibitory Concentration (MIC),[1]; [25],3.1
same,Minimum Inhibitory Concentration (MIC),[2]; [24],1.6
same,Minimum Inhibitory Concentration (MIC),[2]; [25],3.1
same,Minimum Inhibitory Concentration (MIC),[4]; [24],≤ 0.2
same,Minimum Inhibitory Concentration (MIC),[4]; [25],≤ 0.2
same,Minimum Inhibitory Concentration (MIC),[5]; [25],6.3
same,Minimum Inhibitory Concentration (MIC),[5]; [26],25
same,Minimum Inhibitory Concentration (MIC),[6]; [24],≤ 0.2
same,Minimum Inhibitory Concentration (MIC),[6]; [25],25
same,Minimum Inhibitory Concentration (MIC),[6]; [26],6.3
same,Minimum Inhibitory Concentration (MIC),[7]; [24],≤ 0.2
same,Minimum Inhibitory Concentration (MIC),[7]; [25],25
same,Minimum Inhibitory Concentration (MIC),[20]; [24],≤ 0.2
same,Minimum Inhibitory Concentration (MIC),[20]; [26],100
same,Minimum Inhibitory Concentration (MIC),[21]; [24],≤ 0.2
same,Minimum Inhibitory Concentration (MIC),[21]; [26],≥ 100
same,Minimum Inhibitory Concentration (MIC),[22]; [24],0.4
same,Minimum Inhibitory Concentration (MIC),[22]; [26],50
same,Minimum Inhibitory Concentration (MIC),[8]; [24],25
same,Minimum Inhibitory Concentration (MIC),[8]; [25],100
same,Minimum Inhibitory Concentration (MIC),[9]; [24],≤ 0.2
same,Minimum Inhibitory Concentration (MIC),[9]; [25],25
same,Minimum Inhibitory Concentration (MIC),[9]; [26],1.6
same,Minimum Inhibitory Concentration (MIC),[10]; [24],≤ 0.2
same,Minimum Inhibitory Concentration (MIC),[10]; [25],6.3
same,Minimum Inhibitory Concentration (MIC),[11]; [24],≤ 0.2
same,Minimum Inhibitory Concentration (MIC),[11]; [25],1.6
same,Minimum Inhibitory Concentration (MIC),[11]; [26],3.1
same,Minimum Inhibitory Concentration (MIC),[12]; [24],≤ 0.2
same,Minimum Inhibitory Concentration (MIC),[12]; [25],50
same,Minimum Inhibitory Concentration (MIC),[13]; [24],≤ 0.2
same,Minimum Inhibitory Concentration (MIC),[13]; [26],100
same,Minimum Inhibitory Concentration (MIC),[14]; [24],≤ 0.2
same,Minimum Inhibitory Concentration (MIC),[14]; [25],50
same,Minimum Inhibitory Concentration (MIC),[15]; [24],≤ 0.2
same,Minimum Inhibitory Concentration (MIC),[15]; [25],50
same,Minimum Inhibitory Concentration (MIC),[15]; [26],50
same,Minimum Inhibitory Concentration (MIC),[16]; [24],≤ 0.2
same,Minimum Inhibitory Concentration (MIC),[16]; [25],50
same,Minimum Inhibitory Concentration (MIC),[16]; [26],> 100
same,Minimum Inhibitory Concentration (MIC),[23]; [24],≤ 0.2
same,Minimum Inhibitory Concentration (MIC),[23]; [25],0.2
same,Cmax,[19],200 ng/mL
"CCN1CCN(C(=O)NC(C(=O)NC2C(=O)N3C(C(=O)O)=C(CSc4nnnn4C)CSC23)c2ccc(O)cc2)C(=O)C1=O (stereo not drawn) [Comparative Compound (c), reference compound]",Minimum Inhibitory Concentration (MIC),[1]; [24],1.6
same,Minimum Inhibitory Concentration (MIC),[1]; [25],1.6
same,Minimum Inhibitory Concentration (MIC),[2]; [24],3.1
same,Minimum Inhibitory Concentration (MIC),[2]; [25],50
same,Minimum Inhibitory Concentration (MIC),[4]; [24],≤ 0.2
same,Minimum Inhibitory Concentration (MIC),[4]; [25],≤ 0.2
same,Minimum Inhibitory Concentration (MIC),[5]; [24],≤ 0.2
same,Minimum Inhibitory Concentration (MIC),[5]; [25],6.3
same,Minimum Inhibitory Concentration (MIC),[6]; [24],0.4
same,Minimum Inhibitory Concentration (MIC),[6]; [25],25
same,Minimum Inhibitory Concentration (MIC),[7]; [24],≤ 0.2
same,Minimum Inhibitory Concentration (MIC),[7]; [25],25
same,Minimum Inhibitory Concentration (MIC),[8]; [24],50
same,Minimum Inhibitory Concentration (MIC),[8]; [25],> 100
same,Minimum Inhibitory Concentration (MIC),[9]; [24],≤ 0.2
same,Minimum Inhibitory Concentration (MIC),[9]; [25],> 100
same,Minimum Inhibitory Concentration (MIC),[10]; [24],0.4
same,Minimum Inhibitory Concentration (MIC),[10]; [25],50
same,Minimum Inhibitory Concentration (MIC),[11]; [24],≤ 0.2
same,Minimum Inhibitory Concentration (MIC),[11]; [25],≤ 0.2
same,Minimum Inhibitory Concentration (MIC),[12]; [24],0.8
same,Minimum Inhibitory Concentration (MIC),[12]; [25],> 100
same,Minimum Inhibitory Concentration (MIC),[14]; [24],0.8
same,Minimum Inhibitory Concentration (MIC),[14]; [25],> 100
same,Minimum Inhibitory Concentration (MIC),[15]; [24],≤ 0.2
same,Minimum Inhibitory Concentration (MIC),[15]; [25],50
same,Minimum Inhibitory Concentration (MIC),[16]; [24],0.8
same,Minimum Inhibitory Concentration (MIC),[16]; [25],> 100
same,Minimum Inhibitory Concentration (MIC),[23]; [24],≤ 0.2
same,Minimum Inhibitory Concentration (MIC),[23]; [25],0.4
CC(C)(O/N=C(\C(=O)N[C@@H]1C(=O)N2C(C(=O)O)=C(CSc3nnc(CC(N)C(=O)O)s3)CS[C@H]12)c1csc(N)n1)C(=O)O (stereo partly drawn) [Compound No. 8],Cmax,[19],8000 ng/mL
CO/N=C(\C(=O)N[C@@H]1C(=O)N2C(C(=O)O)=C(CSc3nnc(CC(N)C(=O)O)s3)CS[C@H]12)c1csc(N)n1 (stereo partly drawn) [Compound No. 7],Minimum Inhibitory Concentration (MIC),[1]; [24],1.6
same,Minimum Inhibitory Concentration (MIC),[1]; [25],3.1
same,Minimum Inhibitory Concentration (MIC),[2]; [24],3.1
same,Minimum Inhibitory Concentration (MIC),[2]; [25],3.1
same,Minimum Inhibitory Concentration (MIC),[4]; [24],≤ 0.2
same,Minimum Inhibitory Concentration (MIC),[4]; [25],≤ 0.2
same,Minimum Inhibitory Concentration (MIC),[5]; [24],0.4
same,Minimum Inhibitory Concentration (MIC),[5]; [25],0.2
same,Minimum Inhibitory Concentration (MIC),[6]; [24],≤ 0.2
same,Minimum Inhibitory Concentration (MIC),[6]; [25],0.8
same,Minimum Inhibitory Concentration (MIC),[7]; [24],≤ 0.2
same,Minimum Inhibitory Concentration (MIC),[7]; [25],1.6
same,Minimum Inhibitory Concentration (MIC),[8]; [24],50
same,Minimum Inhibitory Concentration (MIC),[8]; [25],100
same,Minimum Inhibitory Concentration (MIC),[9]; [24],≤ 0.2
same,Minimum Inhibitory Concentration (MIC),[9]; [25],0.8
same,Minimum Inhibitory Concentration (MIC),[10]; [24],≤ 0.2
same,Minimum Inhibitory Concentration (MIC),[10]; [25],3.1
same,Minimum Inhibitory Concentration (MIC),[11]; [24],≤ 0.2
same,Minimum Inhibitory Concentration (MIC),[11]; [25],0.2
same,Minimum Inhibitory Concentration (MIC),[12]; [24],≤ 0.2
same,Minimum Inhibitory Concentration (MIC),[12]; [25],25
same,Minimum Inhibitory Concentration (MIC),[14]; [24],≤ 0.2
same,Minimum Inhibitory Concentration (MIC),[14]; [25],25
same,Minimum Inhibitory Concentration (MIC),[15]; [24],≤ 0.2
same,Minimum Inhibitory Concentration (MIC),[15]; [25],12.5
same,Minimum Inhibitory Concentration (MIC),[16]; [24],≤ 0.2
same,Minimum Inhibitory Concentration (MIC),[16]; [25],100
same,Minimum Inhibitory Concentration (MIC),[23]; [24],≤ 0.2
same,Minimum Inhibitory Concentration (MIC),[23]; [25],0.2
same,LD50,[18],9000 to 12000 mg/kg
same,Cmax,[19],7000 ng/mL
